According to PubChem BioAssay AID1188 (EPA DSSTox, 2008):
Calls of active or inactive are those of the source.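 The calls were made as follows: active = a concentration killing half the fathead minnows in the acute test was determined; inconclusive = some fish died but not half at top dose; inactive = no fish died even at top dose.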

System: Fathead minnow (Pimephales promelas) acute toxicity, lethality
Assay: DSSTox (EPAFHM) EPA Fathead Minnow Acute Toxicity
Excerpt: The EPA Fathead Minnow Acute Toxicity database was generated by the U.S. EPA Mid-Continental Ecology Division (MED) for the purpose of developing an expert system to predict acute toxicity from chemical structure based on mode of action considerations. […] A second valuable aspect of this database, from a QSAR modeling perspective, is the inclusion of general mode-of-action (MOA) classifications of acute toxicity response for individual chemicals derived from study results. MOA assignments are biologically based classifications, allowing definition of chemical similarity based upon biological activity instead of organic chemistry functional class as most commonly employed in QSAR study. MOA classifications should strengthen the scientific basis for construction of individual QSARs. However, it is cautioned that the broad MOA categorizations should not be construed to represent a single molecular mechanism; for example, CNS seizure agents and respiratory inhibitors are known to act through a variety of receptors. The EPA Fathead Minnow database and results have been used by EPA MED to build components of the ASTER prediction system, which incorporates MOA-based QSARs for the prediction of aquatic toxicity of environmental and industrial chemicals. Briefly, MOA classifications for individual chemicals, derived from experiments and provided in the EPA Fathead Minnow database, were used to derive substructural rules for assigning a new chemical to an MOA category based solely on chemical structure. Once a new chemical is assigned to an MOA category on this basis, the logP-based QSAR for that MOA category is applied.
The DSSTox EPAFHM database (available from the DSSTox Source URL) includes information pertaining to organic chemical class assignments (ChemClass_FHM), acute toxicity in fathead minnow (LC50_mg), dose-response assessments (LC50_Ratio, ExcessToxicityIndex), behavioral assessments (FishBehaviorTest), joint toxicity MOA evaluations of mixtures (MOA_MixtureTest), and additional MOA evaluation of fish acute toxicity syndrome (FishAcuteToxSyndrome) in rainbow trout. All of these indicators, to the extent available, were considered in the determination of MOA and, additionally, were used to determine a level of confidence in the MOA assignment for each chemical (MOA_Confidence). […] Activity Score is mapping of LOG10 (1/LC50_mmol) activity values spanning activity range [MIN, MAX] onto Integer 1-100 Activity range, where 100 is highest potency and 1 is lowest. If Activity Outcome is "active": Activity Score = 100 * INTEGER[(log10(1/ LC50_mmol) - MIN)/([…])].

SMILES	Potency [µM]	outcome
CCOP(=S)(Oc1ccc([N+](=O)[O-])cc1)c1ccccc1 (stereo not drawn)	0.243	–
c1ccoc1	896	–
C=C(C)C(=O)OC(C)C	296	–
Cc1nnc(N)nc1C	7670	–
N#CCCl	17.8	–
CCSCCCCSCC	34	–
O=[N+]([O-])c1ccc(O)cc1C(F)(F)F	44.1	–
CS(C)=O	435000	–
Nc1ccc(F)c(C(F)(F)F)c1	168	–
CCCCCO	5360	–
Oc1ccc(Cl)cc1	47.5	–
OC1CCCCC1	7030	–
CC(C)=O	123000	–
O=Cc1ccccc1	93	–
OCCOCCOCCO	459000	–
C1CCCCC1	53.8	–
O=Cc1cc(O)ccc1[N+](=O)[O-]	251	–
N#CCCCCCCC#N	3880	–
Cc1cccc(OP(=O)(Oc2cccc(C)c2C)Oc2cccc(C)c2C)c1C	–	inactive; moa not determined either due to lack of toxicity at saturation or late test res
CCC(C)c1cc([N+](=O)[O-])cc([N+](=O)[O-])c1O (stereo not drawn)	2.23	–
Cl[C@@H]1CCCC[C@H]1Cl	120	–
O=Cc1cccc(C(F)(F)F)c1	5.31	–
Cc1ncc[nH]1	3480	–
CCCCCCCCN	40.2	–
CCCCCN	2030	–
COc1ccc(OC)c(C(=O)CBr)c1	2.55	–

SMILES	Potency [µM]	outcome
Cc1cccc(Cl)c1C#N	99.6	–
Nc1ccc(F)cc1	152	–
CC1(C)[C@H]2CC[C@]1(C)C(=O)C2	112	–
Oc1c(Cl)c(Cl)c(Cl)c(Cl)c1Cl	0.912	–
O=Cc1ccc(Oc2ccccc2)cc1	23.2	–
CCOC(N)=O	58800	–
CN(C)c1ccc(P(=O)(c2ccc(N(C)C)cc2)c2ccc(N(C)C)cc2)cc1	–	inactive; moa not determined either due to lack of toxicity at saturation or late test res
BrCC1CCCCO1 (stereo not drawn)	1150	–
Cc1cccnc1	1550	–
[N-]=[N+]=[N-]	84	–
CCOCC	34500	–
Nc1ccccc1	1130	–
OCC#CCO	623	–
CCCCCCCCCCCCN	0.556	–
O=C(O)C[n+]1ccccc1	933	–
Cc1cccc([N+](=O)[O-])c1	187	–
C1=CC2CCC1C2	106	–
OCCOCCO	709000	–
OCCCc1cccnc1	1090	–
C=CC(O)CCC (stereo not drawn)	304	–
C=C[C@@](C)(O)CC[C@H]1C(=C)CC[C@H]2C(C)(C)CCC[C@]12C	0.413	–
Nc1ccc(O)c([N+](=O)[O-])c1	235	–
CCCCCCOc1ccc(N)cc1	15.6	–
O=Cc1cc(Br)cc(Br)c1O	3.04	–
C=C(C)C(=C)C	84.1	–
CC(C)c1ccc2c(c1)CC[C@H]1[C@](C)(C(=O)O)CCC[C@]21C	6.99	–

SMILES	Potency [µM]	outcome
CCN(CC)CCO	15200	–
CC(C)C1=CC2=CC[C@@H]3[C@](C)(CCC[C@@]3(C)C(=O)O)[C@H]2CC1	7.87	–
COc1cc(Cl)c(Cl)cc1O	23.2	–
O=[N+]([O-])c1ccc(Oc2ccc(Br)cc2)c([N+](=O)[O-])c1	–	inactive; moa not determined either due to lack of toxicity at saturation or late test res
CCOP(=S)(OCC)SCCSCC	9.95	–
CCOC(=O)C(Cl)C(=O)OCC	4.88	–
c1cc(CCc2ccncc2)ccn1	820	–
Clc1cccc(Cl)c1	54.6	–
C=CCNc1ccccc1	270	–
CCOP(=O)(Cc1ccccc1)OCC	1470	–
CCC#N	27600	–
CNC(=O)Oc1ccc(N(C)C)c(C)c1	9.36	–
CCCCCCOc1ccc(C=O)cc1OC	11.3	–
CCCCCCC1CCC(=O)O1 (stereo not drawn)	106	–
CCCOC(C)=O	587	–
Cc1ccc(O)c(C)c1	136	–
CCCSSCCC	17	–
CCC(=O)O	49900	–
CCN(CC)C(=O)c1cccc(C)c1	575	–
C=CCCCCCCC=C	2.1	–
CNC(=O)O/N=C(\C)SC	13	–
Cc1ccc(O)cc1	153	–
O=C(/C=C/C=C/c1ccc2c(c1)OCO2)N1CCCCC1	27.5	–
O=[N+]([O-])c1ccc(F)cc1	201	–
C#CC(O)(c1ccccc1)c1ccccc1	53.3	–
CC(N)CN (stereo not drawn)	13600	–
